Results taken from the NIST ThermoML archive (doi:10.1021/je034162x).

Details: 101.33 kPa, Liquid, Hot wire method

Cc1cccc(C)c1C [1,2,3-trimethylbenzene]
Details	thermal conductivity [W/m/K]	thermal diffusivity [m2/s]
257.62 K	0.1341	–
257.83 K	0.134	–
257.99 K	0.134	–
258.45 K	–	8.6e-08
259 K	–	8.55e-08
259.4 K	–	8.56e-08
276.36 K	0.1312	–
276.58 K	0.1312	–
276.73 K	0.1311	–
277.15 K	–	8.25e-08
277.71 K	–	8.21e-08
278.1 K	–	8.2e-08
283.35 K	0.1303	–
283.57 K	0.1302	–
283.74 K	0.1302	–
284.17 K	–	8.15e-08
284.73 K	–	8.14e-08
285.14 K	–	8.15e-08
295.58 K	0.1281	–
295.81 K	0.1279	–
295.99 K	0.1279	–
296.43 K	–	8.04e-08
297.01 K	–	8.01e-08
297.45 K	–	8.04e-08
312.79 K	0.1252	–
313.04 K	0.1252	–
313.21 K	0.1251	–
313.65 K	–	7.79e-08
314.26 K	–	7.81e-08
314.68 K	–	7.78e-08
330.74 K	0.1218	–
330.99 K	0.1218	–
331.17 K	0.1217	–
331.59 K	–	7.49e-08
332.23 K	–	7.53e-08
332.65 K	–	7.51e-08

Cc1cc(C)cc(C)c1 [1,3,5-trimethylbenzene]
Details	thermal conductivity [W/m/K]	thermal diffusivity [m2/s]
258.66 K	0.1434	–
258.83 K	0.1434	–
258.95 K	0.1433	–
259.23 K	–	9.77e-08
259.67 K	–	9.83e-08
259.96 K	–	9.82e-08
276.88 K	0.14	–
277.04 K	0.1398	–
277.16 K	0.1398	–
277.47 K	–	9.49e-08
277.87 K	–	9.44e-08
278.16 K	–	9.45e-08
296.36 K	0.1358	–
296.53 K	0.1356	–
296.66 K	0.1356	–
296.93 K	–	8.99e-08
297.35 K	–	9.01e-08
297.65 K	–	9.02e-08
313.44 K	0.1319	–
313.6 K	0.1317	–
313.73 K	0.1317	–
314.03 K	–	8.71e-08
314.41 K	–	8.63e-08
314.7 K	–	8.63e-08
331.99 K	0.1274	–
332.16 K	0.1274	–
332.28 K	0.1272	–
332.56 K	–	8.28e-08
332.96 K	–	8.25e-08
333.24 K	–	8.21e-08

CCCc1ccccc1 [propylbenzene]
Details	thermal conductivity [W/m/K]	thermal diffusivity [m2/s]
261.18 K	0.1358	–
261.4 K	0.1357	–
261.57 K	0.1356	–
262.04 K	–	9.04e-08
262.63 K	–	9.06e-08
263.06 K	–	9.06e-08
275.09 K	0.133	–
275.33 K	0.1328	–
275.5 K	0.1328	–
275.98 K	–	8.84e-08
276.61 K	–	8.87e-08
277.03 K	–	8.85e-08
294.17 K	0.1286	–
294.42 K	0.1285	–
294.6 K	0.1285	–
295.08 K	–	8.49e-08
295.74 K	–	8.53e-08
296.19 K	–	8.52e-08
312.54 K	0.1247	–
312.79 K	0.1246	–
312.97 K	0.1245	–
313.45 K	–	8.14e-08
314.1 K	–	8.16e-08
314.56 K	–	8.15e-08
329.54 K	0.1208	–
329.79 K	0.1207	–
329.98 K	0.1207	–
330.45 K	–	7.8e-08
331.09 K	–	7.79e-08
331.57 K	–	7.81e-08

C1=CCCC=C1 [1,3-cyclohexadiene]
Details	thermal conductivity [W/m/K]	thermal diffusivity [m2/s]
258.35 K	0.1451	–
258.52 K	0.1449	–
258.62 K	0.1448	–
258.89 K	–	8.41e-08
259.3 K	–	8.45e-08
259.56 K	–	8.41e-08
264.66 K	0.1428	–
264.8 K	0.1426	–
264.89 K	0.1424	–
265.09 K	–	7.72e-08
265.41 K	–	7.72e-08
265.61 K	–	7.69e-08
279.17 K	0.138	–
279.31 K	0.1379	–
279.41 K	0.1378	–
279.59 K	–	7.36e-08
279.93 K	–	7.41e-08
280.16 K	–	7.41e-08
296.25 K	0.1334	–
296.51 K	0.1332	–
296.69 K	0.1331	–
297.24 K	–	8.95e-08
297.94 K	–	8.98e-08
298.42 K	–	8.98e-08
313.95 K	0.1278	–
314.22 K	0.1276	–
314.41 K	0.1275	–
314.96 K	–	8.51e-08
315.67 K	–	8.53e-08
316.17 K	–	8.51e-08
328.56 K	0.1232	–
328.84 K	0.1231	–
329.08 K	0.1231	–
329.6 K	–	8.17e-08
330.32 K	–	8.17e-08
330.99 K	–	8.19e-08

CC(C)c1ccccc1 [isopropylbenzene]
Details	thermal conductivity [W/m/K]	thermal diffusivity [m2/s]
261.13 K	0.1263	–
261.33 K	0.1262	–
261.48 K	0.1262	–
261.85 K	–	8.45e-08
262.36 K	–	8.45e-08
262.72 K	–	8.44e-08
275.03 K	0.1238	–
275.24 K	0.1237	–
275.4 K	0.1237	–
275.75 K	–	8.18e-08
276.27 K	–	8.21e-08
276.65 K	–	8.22e-08
294.11 K	0.1202	–
294.32 K	0.12	–
294.47 K	0.1199	–
294.85 K	–	7.92e-08
295.35 K	–	7.86e-08
295.72 K	–	7.86e-08
312.46 K	0.1164	–
312.68 K	0.1163	–
312.84 K	0.1162	–
313.18 K	–	7.51e-08
313.72 K	–	7.54e-08
314.09 K	–	7.53e-08
329.45 K	0.1128	–
329.68 K	0.1127	–
329.83 K	0.1126	–
330.17 K	–	7.21e-08
330.7 K	–	7.21e-08
331.08 K	–	7.21e-08

C=CCCCCCC [oct-1-ene]
Details	thermal conductivity [W/m/K]	thermal diffusivity [m2/s]
259.69 K	0.1354	–
259.9 K	0.1353	–
260.06 K	0.1353	–
260.46 K	–	9.04e-08
261.02 K	–	9.07e-08
261.42 K	–	9.09e-08
279.34 K	0.1294	–
279.57 K	0.1294	–
279.72 K	0.129	–
280.08 K	–	8.39e-08
280.66 K	–	8.48e-08
281.06 K	–	8.49e-08
296.88 K	0.124	–
297.14 K	0.124	–
297.28 K	0.124	–
297.65 K	–	7.98e-08
298.28 K	–	8e-08
298.61 K	–	8.02e-08
315.82 K	0.1185	–
316.07 K	0.1186	–
316.24 K	0.1186	–
316.57 K	–	7.49e-08
317.19 K	–	7.58e-08
317.61 K	–	7.61e-08
326.44 K	0.1155	–
326.7 K	0.1156	–
326.87 K	0.1156	–
327.18 K	–	7.24e-08
327.82 K	–	7.35e-08
328.26 K	–	7.38e-08

c1ccccc1 [benzene]
Details	thermal conductivity [W/m/K]	thermal diffusivity [m2/s]
281.18 K	0.1464	–
281.49 K	0.1462	–
281.76 K	0.1461	–
282.86 K	–	9.74e-08
283.9 K	–	9.74e-08
284.75 K	–	9.72e-08
295.92 K	0.1416	–
296.25 K	0.1414	–
296.53 K	0.1413	–
297.67 K	–	9.4e-08
298.78 K	–	9.44e-08
299.68 K	–	9.44e-08
301.25 K	0.1399	–
301.59 K	0.1398	–
301.87 K	0.1396	–
303.02 K	–	9.29e-08
304.13 K	–	9.31e-08
305.05 K	–	9.29e-08
319.14 K	0.134	–
319.49 K	0.1338	–
319.79 K	0.1337	–
321.04 K	–	8.97e-08
322.15 K	–	8.92e-08
323.12 K	–	8.9e-08

C=CCCC [1-pentene]
Details	thermal conductivity [W/m/K]	thermal diffusivity [m2/s]
257.36 K	0.1284	–
257.67 K	0.1283	–
257.93 K	0.1283	–
258.93 K	–	9.28e-08
259.91 K	–	9.28e-08
260.57 K	–	9.25e-08
276.47 K	0.121	–
276.82 K	0.1209	–
277.07 K	0.1203	–
278.11 K	–	8.65e-08
279.18 K	–	8.7e-08
279.9 K	–	8.66e-08
294.04 K	0.1141	–
294.42 K	0.1139	–
294.66 K	0.1139	–
295.8 K	–	8.2e-08
296.87 K	–	8.16e-08
297.67 K	–	8.16e-08
301.07 K	0.1113	–
301.46 K	0.1112	–
301.75 K	0.1111	–
302.88 K	–	7.99e-08
303.99 K	–	7.96e-08
304.8 K	–	7.96e-08
